The values below come from US6667327B2, “Pyridine amido derivatives” (Hoffmann-La Roche Inc., priority 2003, dated 2003).

One experiment addresses T1, human MAO-B (Homo sapiens, UniProt P27338).
T1 construct: expressed in transfected cells; host or cells: EBNA cells (transient transfection); cell membranes
T1 sequence (P27338 1-520): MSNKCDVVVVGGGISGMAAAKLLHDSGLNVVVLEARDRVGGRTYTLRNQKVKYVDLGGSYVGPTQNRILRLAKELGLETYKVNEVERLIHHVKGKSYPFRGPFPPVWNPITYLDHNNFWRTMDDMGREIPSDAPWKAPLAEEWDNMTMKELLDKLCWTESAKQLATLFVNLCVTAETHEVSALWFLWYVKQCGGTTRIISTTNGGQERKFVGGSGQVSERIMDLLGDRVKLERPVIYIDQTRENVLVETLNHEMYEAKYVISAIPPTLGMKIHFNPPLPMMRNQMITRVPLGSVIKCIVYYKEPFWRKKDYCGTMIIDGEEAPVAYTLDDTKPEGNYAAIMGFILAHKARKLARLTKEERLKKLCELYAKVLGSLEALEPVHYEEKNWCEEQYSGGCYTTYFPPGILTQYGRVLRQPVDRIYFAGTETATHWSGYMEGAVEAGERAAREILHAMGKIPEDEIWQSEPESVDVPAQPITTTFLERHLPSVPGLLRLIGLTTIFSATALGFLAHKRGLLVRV
Description: [3H]Ro 19-6327 binding assay for MAO-B on membranes of transfected EBNA cells. Conditions: 20 nM [3H]Ro 19-6327, 1 hour at 25° C., membranes of EBNA cells transfected with human MAO-B. As to the method: (§1) The cDNA's encoding human MAO-A and MAO-B were transiently transfected into EBNA cells using the procedure described by E.-J. Schlaeger and K. Christensen (Transient Gene Expression in Mammalian Cells Grown in Serum-free Suspension Culture; Cytotechnology, 15: 1-13, 1998). After transfection, cells were homogeneised by means of a Polytron homogeneiser in 20 mM Tris HCI buffer, pH 8.0, containing 0.5 mM EGTA and 0.5 mM phenylmethanesulfonyl fluoride. Cell membranes were obtained by centrifugation at 45,000×g and, after two rinsing step with 20 mM Tris HCI buffer, pH 8.0, containing 0.5 mM EGTA, membranes were eventually re-suspended in the above buffer and aliquots stored at −80° C. until use.
(§2) MAO-A and MAO-B activities were assayed by [^3H]Ro 41-1049 [tritiated N-(2-aminoethyl)-5-(3-fluorophenyl)-4-thiazole-carboxamide] and [^3H] Ro 19-6327 [tritiated N-(2-aminoethyl)-5-chloro-2-pyridinecarboxamide, [^3H] lazabemide] binding, respectively, following the methods described by Cesura et al. (Characterization of the binding of [^3H]Ro 41-1049 to the active site of monoamine oxidase-A, Molec. Pharmacol. 1990, 37, 358-366; [^3H]Ro 19-6327: a reversible ligand and affinity-labeling probe for monoamine oxidase-B, Eur. J. Pharmacol., 1989, 162, 457-465). Briefly, membrane aliquots were incubated in the presence of 20 nM [^3H]Ro 41-1049 (MAO-A assay) and [^3H]Ro 19-6327 (MAO-B assay) for 1 hour at 37° C. and 25° C., respectively, with or without various concentrations of the compounds, in a final volume of 0.2 ml. The incubation buffer consisted of 50 mM Tris, 130 mM NaCl, 5 mM KCI, 1 mM MgCl2, 0.5 mM EGTA, buffered to pH 7.4 with HCl. The assay was terminated by filtering the samples through GF/C filters (Unifilter-96, Canberra Packard). The radioactivity retained on the filters was eventually counted for radioactivity by means of a Packard Top-Count scintillation counter, after addition of Microscint 40 scintillation fluid (Canberra Packard). Non-specific binding was determined in the presence of 10 μM clorgyline for MAO-A or 10 μM L-deprenyl for MAO-B.
(§3) IC50 values, that is, the concentration of a test compound of formula I required to inhibit the MAO-B enzyme activity by 50%, were determined from inhibition curves obtained using nine inhibitor concentrations in duplicate, by fitting data to a four parameter logistic equation using a computer program.

For another experiment, the target named is T2, human MAO-A (Homo sapiens, UniProt P21397).
T2 construct: expressed in transfected cells; host or cells: EBNA cells (transient transfection); cell membranes
T2 sequence (P21397 1-527): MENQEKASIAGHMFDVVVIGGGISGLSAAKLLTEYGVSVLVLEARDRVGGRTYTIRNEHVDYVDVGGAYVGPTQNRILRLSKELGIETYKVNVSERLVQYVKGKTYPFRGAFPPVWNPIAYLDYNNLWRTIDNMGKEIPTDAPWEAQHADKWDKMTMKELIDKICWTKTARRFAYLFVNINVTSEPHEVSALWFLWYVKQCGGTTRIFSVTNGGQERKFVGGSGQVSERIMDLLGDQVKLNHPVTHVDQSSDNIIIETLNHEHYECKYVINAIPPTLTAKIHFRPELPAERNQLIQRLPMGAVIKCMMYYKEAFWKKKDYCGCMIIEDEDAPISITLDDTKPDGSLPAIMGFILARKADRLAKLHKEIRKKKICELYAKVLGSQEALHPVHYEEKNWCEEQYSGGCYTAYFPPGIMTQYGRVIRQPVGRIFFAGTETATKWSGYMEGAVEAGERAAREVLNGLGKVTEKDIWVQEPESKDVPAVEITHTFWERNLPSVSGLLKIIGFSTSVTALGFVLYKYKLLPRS
Nature of the experiment: [3H]Ro 41-1049 binding assay for MAO-A on membranes of transfected EBNA cells. To be noted: 20 nM [3H]Ro 41-1049, 1 hour at 37° C., membranes of EBNA cells transfected with human MAO-A. The method, then: as §1, §2, §3

For `NC(=O)CNC(=O)c1ccc(OCc2ccc(F)c(F)c2)cn1` [Example 9, 5-(3,4-Difluoro-benzyloxy)-pyridine-2-carboxylic Acid Carbamoylmethyl-amide], the values for the IC50 at human MAO-B and at human MAO-A were 43 nM and greater than 10000 nM, respectively.
Consider `NC(=O)CNC(=O)c1ccc(OCc2cccc(F)c2)cn1` [Example 7, 5-(3-Fluoro-benzyloxy)-pyridine-2-carboxylic Acid Carbamoylmethyl-amide], for which the IC50 (commonly the concentration that gives 50% inhibition) at human MAO-B worked out at 28 nM; at human MAO-A, 9160 nM.
On to `NC(=O)CNC(=O)c1ccc(OCc2ccc(F)cc2)cn1` [Example 8, 5-(4-Fluoro-benzyloxy)-pyridine-2-carboxylic Acid Carbamoylmethyl-amide], for which the IC50 at human MAO-B is 30 nM; at human MAO-A, greater than 10000 nM.
With `NC(=O)CNC(=O)c1ccc(OCc2ccccc2)nc1` [Example 1, 6-Benzyloxy-N-carbamoylmethyl-nicotinamide], the figures for the IC50 on human MAO-B and at human MAO-A were 33 nM and greater than 10000 nM, respectively.
As to `C[C@H](NC(=O)c1ccc(OCc2ccc(F)cc2)cn1)C(N)=O` [Example 11, (S)-5-(4-Fluoro-benzyloxy)-pyridine-2-carboxylic Acid (1-carbamoyl-ethyl)-amide], the IC50 is 70 nM at human MAO-B and greater than 10000 nM at human MAO-A.
With `NC(=O)CNC(=O)c1ccc(OCc2cccc(F)c2)nc1` [Example 2, N-Carbamoylmethyl-6-(3-fluoro-benzyloxy)-nicotinamide], the results for the concentration for half-maximal inhibition (IC50) at human MAO-B and on human MAO-A were 30 nM and 4150 nM, respectively.
